In the SangsterLogP compilation:

Experiment: method code SF, from DOI: 10.1080/10826079508010421
Settings: pH 11.0

| Compound | logD |
| --- | --- |
| Cc1ccc(OCC2CN=C(N)O2)cc1 (stereo not given) | 1.79 |
| NC1=NCC(COc2ccc(N3CCOCC3)cc2)O1 (stereo not given) | 0.6 |
| Cc1ccccc1OCC1CN=C(N)O1 (stereo not given) | 1.69 |
| NC1=NCC(COc2ccccc2Cl)O1 (stereo not given) | 1.77 |
| COc1ccc(OCC2CN=C(N)O2)cc1 (stereo not given) | 1.26 |
| NC1=NCC(COc2ccc([N+](=O)[O-])cc2)O1 (stereo not given) | 1.17 |
| NC1=NCC(COc2ccccc2)O1 (stereo not given) | 1.27 |

Other lines, results leading:

| logD | Compound |
| --- | --- |
| 2 | NC1=NCC(COc2ccc(Cl)cc2)O1 (stereo not given) |
| 0.85 | COc1ccccc1OCC1CN=C(N)O1 (stereo not given) |
| 1.24 | CCOc1ccccc1OCC1CN=C(N)O1 (stereo not given) |
